Measured values taken from US20220305031A1, “METHODS FOR REDUCING TUMOR PROGRESSION AND FIBROSIS AND INCREASING ADAPTIVE IMMUNITY IN MALIGNANCIES” (GEORGETOWN UNIVERSITY, priority 2019, published 2022).

Tests used:
Type in all cases: in vivo
NeuT/ATTAC mice [1] = assay: Tumor development and multiplicity in AP-treated NeuT/ATTAC mice on DMHCA diet; settings: diet with 0.05% DMHCA (~100 mg/kg/day)
Description: The derivation and characteristics of MMTV-PPARd mice was reported in Yuan et al., “PPARdelta Induces Estrogen Receptor-Positive Mammary Neoplasia Through an Inflammatory and Metabolic Phenotype Linked to mTOR Activation,” Cancer Res. 73(14):4349-4361 (2013), which is hereby incorporated by reference in its entirety. […] FAT-ATTAC mice on a C57BL/6 background (Pajvani et al., “Fat Apoptosis Through Targeted Activation of Caspase 8: A New Mouse Model of Inducible and Reversible Lipoatrophy,” Nat. Med. 11(7):797-803 (2005); Landskroner-Eiger et al., “Morphogenesis of the Developing Mammary Gland. Stage-Dependent Impact of Adipocytes,” Dev. Biol. 344(2):968-978 (2010), each of which is hereby incorporated by reference in its entirety) were crossed into the FVB strain for several generations. Derivation of NeuT/ATTAC mice was reported in Yuan et al., “MMTV-NeuT/ATTAC Mice: A New Model for Studying the Stromal Tumor Microenvironment,” Oncotarget. 9(8):8042-8053 (2018), which is hereby incorporated by reference in its entirety. All animals were fed LabDiet 5303 and monitored for the NeuT, PPARd, and/or FKBPv-caspase 8 transgenes by genotyping.
(§1) Fibrosis was induced in mice at 6 w.o.a. by weekly i.p. injections of 0.4 mg/kg AP dissolved in vehicle (4% ethanol, 10% PEG-400, and 1.75% Tween-20 in water). Mice were maintained on LabDiet 5053 chow supplemented with 0.05% DMHCA (100 mg/kg) beginning at 8 w.o.a. Control mice received the standard diet.
Statistical significance was evaluated using the Mantel-Cox log-rank test for survival analysis and Prism GraphPad software or the two-tailed Student's t test to evaluate differences between means at a significance of P<0.05.
A study was designed to evaluate whether DMHCA treatment could abrogate tumor development in NeuT/ATTAC mice treated with AP.

NeuT/ATTAC mice [2] = assay: FACS analysis of immune cell subsets in tumor infiltrates and spleen
Experimental: as §1
To assess whether DMHCA treatment could reduce immune tolerance in NeuT/ATTAC mice, a model that is highly resistant to PD-1 immunotherapy, spleen and tumor immune infiltrates were analyzed by FACS (FIGS. 6A-6C).

[3] = tested on: tumors from NeuT/ATTAC mice; assay: Immunohistochemistry of FFPE tumor sections
Experimental: as §1
Mammary tissue was excised and FFPE sections were prepared (Yuan et al., “MMTV-NeuT/ATTAC Mice: A New Model for Studying the Stromal Tumor Microenvironment,” Oncotarget. 9(8):8042-53 (2018); Yuan et al., “PPARdelta Induces Estrogen Receptor-Positive Mammary Neoplasia Through an Inflammatory and Metabolic Phenotype linked to mTOR Activation,” Cancer Res. 73(14):4349-4361 (2013); Yin et al., “Peroxisome Proliferator-Activated Receptor Delta and Gamma Agonists Differentially Alter Tumor Differentiation and Progression During Mammary Carcinogenesis,” Cancer Res. 65:3950-3957 (2005); Yin et al., “Inhibition of Peroxisome Proliferator-Activated Receptor Gamma Increases Estrogen Receptor-Dependent Tumor Specification,” Cancer Res. 69(2):687-694 (2009), each of which is hereby incorporated by reference in its entirety). Primary antibodies: PD-L1 (1:200, 17952-1-AP, Proteintech), SMA (1:100, sc130617, Santa Cruz), Ki67 (1:50, CRM325, Biocare), CD31 (1:100, ab56299, Abcam), CXCL1 (1:120, sc-1374, Santa Cruz), F4/80 (1:30, 14-4801-85, eBioscience), Foxp3 (1:50, 14-5773-82, e Bioscience), CD8a (1:40, 14-0808-82, eBioscience). Collagen was stained with Picrosirius Red stain (Yuan et al., “MMTV-NeuT/ATTAC Mice: A New Model for Studying the Stromal Tumor Microenvironment,” Oncotarget. 9(8):8042-53 (2018), which is hereby incorporated by reference in its entirety).

[4] = tested on: tumors from NeuT/ATTAC mice; assay: FLIM and SHG microscopy of tumor sections; settings: DMHCA-treated tumor vs control tumor
Description: SHG imaging using a multiphoton microscope equipped with a Deep Imaging Via Emission Recovery (DIVER) detector (Crosignani et al., “Deep Tissue Fluorescence Imaging and in Vivo Biological Applications,” J. Biomed. Opt. 17(11):116023 (2012), which is hereby incorporated by reference in its entirety) can distinguish collagen accumulation in the early stages of fibrosis unlike standard histological analysis (Dvornikov & Gratton, “Imaging in Turbid Media: A Transmission Detector Gives 2-3 Order of Magnitude Enhanced Sensitivity Compared to Epi-Detection Schemes,” Biomed. Opt. Express 7:3747-755 (2016); Ranjit et al., “Label-Free Fluorescence Lifetime and Second Harmonic Generation Imaging Microscopy Improves Quantification of Experimental Renal Fibrosis,” Kidney Int. 90:1123-1128 (2016), each of which is hereby incorporated by reference in its entirety). DIVER, by virtue of detection in the direction of light propagation is especially suitable for SHG detection and a combination of SHG and FLIM enables spatial mapping of collagen I and III, which is important for fibrosis. Additionally, this type of imaging is applicable to unstained tissues, which eliminates the uncertainty from issues associated with labeling efficiency. Moreover, the same tissue can be used for other purposes after imaging is complete. […]

[5] = NeuT/ATTAC mice, DMHCA from two months of age

## C[C@H](CCC(=O)N(C)C)[C@H]1CC[C@H]2[C@@H]3CC=C4C[C@@H](O)CC[C@]4(C)[C@H]3CC[C@]12C [DMHCA, dimethyl-3-beta-hydroxy-cholenamide]
NeuT/ATTAC mice [1]; NeuT/ATTAC mice treated with AP, FIG. 5A
  tumor development: reduction in tumor development
NeuT/ATTAC mice [1]; NeuT/ATTAC mice treated with AP, FIG. 5B
  decrease in tumor multiplicity: 10 fold
NeuT/ATTAC mice [1]
  toxicity of dietary dose: nontoxic
NeuT/ATTAC mice [2]; [5]
  PD1+/Foxp3+ CD4+ T cells: increase
NeuT/ATTAC mice [2]; spleen, vs control
  CD4+ effector T cells: enhanced
  CD8+ effector T cells: enhanced
  G-MDSC: reduced
  Treg cells: markedly reduced
NeuT/ATTAC mice [2]; tumor infiltrates, vs control
  CD4+ effector T cells: increased
  CD8+ effector T cells: increased
  G-MDSC: reduced
  M-MDSC: reduced
  Treg: reduced
[3]; IHC of tumors, FIG. 7
  CXCL1 expression: reduced CXCL1 expression
[3]; [5]
  fibroblast activation protein expression: reduced
  smooth muscle actin expression: reduced
[4]; FIG. 8C-8D
  collagen I & collagen III detected by FLIM: little collagen
[4]; FIG. 8E-8G
  collagen I by SHG microscopy: markedly reduced
